According to US20160002247A1, “8-SUBSTITUTED IMIDAZOPYRIMIDINONE DERIVATIVE HAVING AUTOTAXIN INHIBITORY ACTIVITY” (THE UNIVERSITY OF TOKYO, priority 2013, published 2016):

molecular target: T1, Mouse autotaxin enzyme (Mus musculus, UniProt Q9R1E6); test: Evaluation of autotaxin inhibitor, Method A (Test Example 1): TG-mTMP fluorescence; assay type: biochemical; details: Assay Method: Method A (Test Example 1); read-out: Inhibitory Activity (Enzyme Inhibitory Activity, IC50)
T1 construct: purchased R&D System
Procedure: (Method A) Evaluation of Autotaxin Inhibitor
Solution A containing 25 mM Tris-HCl buffer (pH7.5), 100 mM NaCl, 5 mM MgCl2 and 0.1% BSA was prepared. Mouse autotaxin enzyme (purchased from R&D System) was diluted with Solution A, and 5 μL of which was added to a solution of test compound in DMSO. Furthermore, 5 μl of 0.5 μM TG-mTMP in Solution A was added and allowed to react at room temperature for 2 hours. 5 μl of 150 mM EDTA in Solution A was added to quench the reaction, and a fluorescent dye TokyoGreen, which was produced by the reaction, was detected. The fluorescence was detected using ViewLux (PerkinElmer, Inc.) with an excitation wavelength of 480 nm and a fluorescence wavelength of 540 nm.
The percent inhibition of the test compound was calculated by assuming the sample with no test compound as 0% inhibition and the sample with no enzyme as 100% inhibition, and the percent inhibitions at different concentrations of the test compound were plotted to obtain a concentration-dependent curve.

SMILES | IC50 [nM]
CCNC(=O)Cn1c(C)cc(=O)n2cc(-c3ccc(Cl)cc3)nc12 [Compound 24] | 100 to 1000
CCN(C)C(=O)Cn1c(C)cc(=O)n2cc(-c3ccc(Cl)cc3)nc12 [Compound 25] | 100 to 1000
CCOC(=O)Cn1c(C)cc(=O)n2cc(-c3ccc(OC)cc3)nc12 [Compound 32] | 10 to 100
CCOC(=O)Cn1c(C)cc(=O)n2cc(-c3ccc(Br)cc3)nc12 [Compound 31] | 10 to 100

molecular target: T2, Human autotaxin enzyme (Homo sapiens, UniProt Q13822); test: Evaluation of autotaxin inhibitor, Method B (Test Example 2): TG-mTMP fluorescence; assay type: biochemical; details: Assay Method B (Test Example 2), human autotaxin; read-out: Inhibitory Activity (autotaxin enzyme inhibitory activity, IC50 class)
T2 construct: purchased R&D System
Method in brief: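 Human autotaxin in Tris-HCl pH 7.5 buffer with NaCl, MgCl2 and 0.1% BSA was reacted with TG-mTMP (0.5 μM solution added) and test compound for 2 hours at room temperature.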

SMILES | IC50 [nM]
CCCCCn1c(NCCC)cc(=O)n2cc(-c3ccc(Cl)cc3)nc12 [Compound 188] | 10 to 100
CCCCCn1c(C)cc(=O)n2cc(-c3ccc(OC(F)(F)F)cc3)nc12 [Compound 156] | < 10
CCCCCn1c(-c2cccc(OC)c2)cc(=O)n2cc(-c3ccc(Cl)cc3)nc12 [Compound 396] | 10 to 100
Cc1cc(=O)n2cc(-c3ccc(Cl)cc3)nc2n1C(C)c1cccc(C(F)(F)F)c1 (stereo not shown) [Compound 108] | 10 to 100
CCCCCn1c(-c2ccc(NCC(C)C)nc2)cc(=O)n2cc(-c3ccc(Cl)cc3)nc12 [Compound 419] | < 10
CCCCCn1c(-c2ccc(N(C)CC3CCCCO3)cc2)cc(=O)n2cc(-c3ccc(Cl)cc3)nc12 (stereo not shown) [Compound 420] | 10 to 100
CCCCCn1c(/C=C/C(C)(C)C)cc(=O)n2cc(-c3ccc(Cl)cc3)nc12 [Compound 415] | 10 to 100
CCCCCOC(=O)CCc1c(C)n(CCCCC)c2nc(-c3ccc(Cl)cc3)cn2c1=O [Compound 201] | < 10
CCCCCn1c(N2CCN(CCc3ccccc3)CC2)cc(=O)n2cc(-c3ccc(Cl)cc3)nc12 [Compound 223] | 10 to 100
CCCCCn1ccc(=O)n2cc(-c3ccc(Cl)cc3)nc12 [Compound 186] | 10 to 100
CCCCCn1c(-c2ccc(N3CCN(C)CC3)cc2)cc(=O)n2cc(-c3ccc(Cl)cc3)nc12 [Compound 416] | < 10
CCCCCn1c(C)cc(=O)n2cc(-c3cc4ccccc4o3)nc12 [Compound 143] | 100 to 1000
CCCCCn1c(Oc2ccc(-c3ccccc3)cc2)cc(=O)n2cc(-c3ccc(Cl)cc3)nc12 [Compound 265] | > 1000
Cc1cc(=O)n2cc(-c3ccc(Cl)cc3)nc2n1Cc1ccc(C(=O)c2ccccc2)cc1 [Compound 111] | 100 to 1000
CCCCCn1c(-c2ccc(C#N)cc2)cc(=O)n2cc(-c3ccc(Cl)cc3)nc12 [Compound 400] | < 10
CCCCCn1c(C)cc(=O)n2c(Br)c(-c3ccc(Cl)cc3)nc12 [Compound 171] | 10 to 100
Cc1cc(=O)n2cc(-c3ccc(Cl)cc3)nc2n1Cc1cccnc1 [Compound 117] | 10 to 100
CCCCCn1c(C)c(CC(=O)O)c(=O)n2cc(-c3ccc(Cl)cc3)nc12 [Compound 179] | 10 to 100
CCCCCn1c(-c2ccc(F)cc2)cc(=O)n2cc(-c3ccc(Cl)cc3)nc12 [Compound 368] | < 10
CCCCCn1c(N2C(C)CCC2C)cc(=O)n2cc(-c3ccc(Cl)cc3)nc12 (stereo not shown) [Compound 255] | < 10
CCCCCn1c(-c2ccncc2)cc(=O)n2cc(-c3ccc(Cl)cc3)nc12 [Compound 410] | < 10
CCCCCn1c(N2CCCC2C)cc(=O)n2cc(-c3ccc(Cl)cc3)nc12 (stereo not shown) [Compound 259] | 10 to 100
CCCCCn1c(NCc2ccc(N(C)C)cc2)cc(=O)n2cc(-c3ccc(Cl)cc3)nc12 [Compound 237] | 10 to 100
CCCCCn1c(-c2ccc(COC)cc2)cc(=O)n2cc(-c3ccc(Cl)cc3)nc12 [Compound 404] | < 10
CCCCCn1c(C)cc(=O)n2cc(-c3ccccc3)nc12 [Compound 138] | 100 to 1000
CCCCCn1c(C)c(CCOCC)c(=O)n2cc(-c3ccc(Cl)cc3)nc12 [Compound 214] | < 10
Cc1cncc(Oc2ccc(Cn3c(C)cc(=O)n4cc(-c5ccc(Cl)cc5)nc34)cc2)n1 [Compound 92] | 10 to 100
Cc1cc(=O)n2cc(-c3ccc(Cl)cc3)nc2n1Cc1cccc(C(F)(F)F)c1 [Compound 115] | 10 to 100

SMILES | IC50 [nM]
CCCCCn1c(C)c(C#CCO)c(=O)n2cc(-c3ccc(Cl)cc3)nc12 [Compound 183] | 10 to 100
CCCCCn1c(C)c(C#N)c(=O)n2cc(-c3ccc(Cl)cc3)nc12 [Compound 184] | > 1000
CCCCCn1c(C)cc(=O)n2c(CO)c(-c3ccc(Cl)cc3)nc12 [Compound 168, 2-(4-chlorophenyl)-3-hydroxymethyl-7-methyl-8-pentylimidazo[1,2-a]pyrimidin-5(8H)-one] | 100 to 1000
Cc1cc(=O)n2cc(-c3ccc(Cl)cc3)nc2n1CCCC#N [Compound 106] | 10 to 100
N#CCCCCn1c(NCc2ccc(C(=O)O)cc2)cc(=O)n2cc(-c3ccc(Cl)cc3)nc12 [Compound 286] | < 10
CCCCCn1c(N2CCC[C@H]2C)cc(=O)n2cc(-c3ccc(Cl)cc3)nc12 [Compound 256] | < 10
CCCCCn1c(Oc2ccc(C(=O)CC)cc2)cc(=O)n2cc(-c3ccc(Cl)cc3)nc12 [Compound 266] | 100 to 1000
CCCCCn1c(C)c(CCC(=O)OCC)c(=O)n2cc(-c3cccc(Cl)c3)nc12 [Compound 210] | 100 to 1000
CCCCCn1c(-c2ccccc2OC)cc(=O)n2cc(-c3ccc(Cl)cc3)nc12 [Compound 395] | 10 to 100
Cc1cc(=O)n2cc(-c3ccc(Cl)cc3)nc2n1Cc1cccc(OCC(=O)O)c1 [Compound 96] | 100 to 1000
CCCCCn1c(-c2ccc(C(=O)N(C)C)cc2)cc(=O)n2cc(-c3ccc(Cl)cc3)nc12 [Compound 402] | < 10
CCCCCn1c(C)c(-c2ccccc2)c(=O)n2cc(-c3ccc(Cl)cc3)nc12 [Compound 182] | > 1000
CCCCCn1c(C)c(C(=O)O)c(=O)n2cc(-c3ccc(Cl)cc3)nc12 [Compound 185] | 100 to 1000
CCC(CC)Cn1c(C)cc(=O)n2cc(-c3ccc(Cl)cc3)nc12 [Compound 87] | 10 to 100
N#CCCCCn1c(-c2ccc(C(=O)NCCN3CCOCC3)cc2)cc(=O)n2cc(-c3ccc(C#N)cc3)nc12 [Compound 386] | < 10
Cc1cc(=O)n2cc(-c3ccc(Cl)cc3)nc2n1CC1CCCO1 (stereo not shown) [Compound 107] | 100 to 1000
CCCCCn1c(C=O)cc(=O)n2cc(-c3ccc(Cl)cc3)nc12 [Compound 370] | < 10
CCCCCn1c(NCc2nccs2)cc(=O)n2cc(-c3ccc(Cl)cc3)nc12 [Compound 233] | 10 to 100
CCCCCn1c(OC2CCCC2)cc(=O)n2cc(-c3ccc(Cl)cc3)nc12 [Compound 260] | 10 to 100
CCCCCn1c(C)c(Cc2ccccc2)c(=O)n2cc(-c3cccc(Cl)c3)nc12 [Compound 211] | > 1000
CCCCCn1c(C)c(NC(C)=O)c(=O)n2cc(-c3ccc(Cl)cc3)nc12 [Compound 199] | 10 to 100
CCCCCn1c(-c2ccc(O)cc2)cc(=O)n2cc(-c3ccc(Cl)cc3)nc12 [Compound 411] | < 10
Cc1cc(=O)n2cc(-c3ccc(Cl)cc3)nc2n1Cc1ccc(Br)cc1F [Compound 97] | 10 to 100
CCCCCn1c(C)cc(=O)n2c(CN)c(-c3ccc(Cl)cc3)nc12 [Compound 172] | > 1000
Cc1cc(=O)n2cc(-c3ccc(Cl)cc3)nc2n1Cc1ccc(S(C)(=O)=O)cc1 [Compound 105] | 10 to 100
CCCCCn1c(C)cc(=O)n2cc(-c3ccc4occc4c3)nc12 [Compound 146] | 100 to 1000
CCCCCn1c(NCCN(C)C)cc(=O)n2cc(-c3ccc(Cl)cc3)nc12 [Compound 235] | 10 to 100

same assay, conditions: Assay Method: Method B (Test Example 2); read-out: Inhibitory Activity (Enzyme Inhibitory Activity, IC50)

SMILES | IC50 [nM]
Cc1cc(=O)n2cc(-c3ccc(Cl)cc3)nc2n1CCC(F)=C(F)F [Compound 55] | 10 to 100
Cc1cc(=O)n2cc(-c3ccc(Cl)cc3)nc2n1CC(=O)OC(C)(C)C [Compound 73] | 10 to 100
Cc1cc(=O)n2cc(-c3ccc(Cl)cc3)nc2n1Cc1ccccc1F [Compound 53] | 10 to 100
Cc1cc(=O)n2cc(-c3ccc(Cl)cc3)nc2n1CC1CCCC1 [Compound 57] | 10 to 100
Cc1cc(=O)n2cc(-c3ccc(Cl)cc3)nc2n1Cc1ccc(OCCN2CCCC2)cc1 [Compound 85] | < 10
Cc1cc(=O)n2cc(-c3ccc(Cl)cc3)nc2n1CCC(C)C [Compound 79] | 10 to 100
CC(=O)CCCn1c(C)cc(=O)n2cc(-c3ccc(Cl)cc3)nc12 [Compound 61] | 100 to 1000
CCC(=O)Cn1c(C)cc(=O)n2cc(-c3ccc(Cl)cc3)nc12 [Compound 28] | 10 to 100
Cc1cc(=O)n2cc(-c3ccc(Cl)cc3)nc2n1CCCC(C)C [Compound 81] | < 10
Cc1cc(=O)n2cc(-c3ccc(Cl)cc3)nc2n1C(C)c1ccccc1 (stereo not shown) [Compound 54] | 10 to 100
CCOC(=O)C(C)n1c(C)cc(=O)n2cc(-c3ccc(Cl)cc3)nc12 (stereo not shown) [Compound 80] | 10 to 100
Cc1cc(=O)n2cc(-c3ccc(Cl)cc3)nc2n1CCC(F)(F)F [Compound 65] | 100 to 1000

same assay, conditions: Inhibitory Activity (Enzyme Inhibitory Activity, IC50), Assay Method: Method B (Test Example 2)

SMILES | IC50 [nM]
CCCCCn1c(C)cc(=O)n2cc(-c3ccc(Cl)cc3)nc12 [Compound 3, 2-(4-chlorophenyl)-7-methyl-8-pentyl-imidazo[1,2-a]pyrimidin-5(8H)-one] | < 10

same assay, conditions: Inhibitory Activity (autotaxin enzyme inhibitory activity, IC50 class), Assay Method B (Test Example 2), human autotaxin

SMILES | IC50 [nM]
CCCCCn1c(NC2C[C@@H]3CC[C@H]2C3)cc(=O)n2cc(-c3ccc(Cl)cc3)nc12 (stereo partly shown) [Compound 252] | 10 to 100
